From ChEMBL document CHEMBL1795314, “Mycobacterium tuberculosis and cholinesterase inhibitors from Voacanga globosa” (Eur J Med Chem, 2011)
Values after ≈ are worked out from the molar mass of the structure shown.

Experiments:
[1] = system: Mycobacterium tuberculosis; test: Antitubercular activity against replicating Mycobacterium tuberculosis H37Rv ATCC 27294 after 1 week by microplate alamar blue assay; type: functional; settings: H37Rv ATCC 27294, 168 h
Acetylcholinesterase = Acetylcholinesterase (Electrophorus electricus, UniProt O42275); test: Inhibition of electric eel AChE by colorimetric Ellman's assay
Cholinesterase = Cholinesterase (Equus caballus, UniProt P81908); test: Inhibition of equine serum BChE by colorimetric Ellman's assay
[2] = system: Mycobacterium tuberculosis; test: Antitubercular activity against replicating Mycobacterium tuberculosis H37Rv ATCC 27294 at 100 ug/ml after 1 week by microplate alamar blue assay; type: functional; settings: H37Rv ATCC 27294, 168 h
[3] = system: Mycobacterium tuberculosis; test: Antitubercular activity against replicating Mycobacterium tuberculosis H37Rv ATCC 27294 at 50 ug/ml after 1 week by microplate alamar blue assay; type: functional; settings: H37Rv ATCC 27294, 168 h
[4] = system: Mycobacterium tuberculosis; test: Antitubercular activity against non-replicating Mycobacterium tuberculosis H37Rv ATCC 27294 incubated 10 days under anaerobic condition measured after 28 hrs of recovery in air by luciferase based low oxygen recovery assay; type: functional
[5] = system: Mycobacterium tuberculosis; test: Antitubercular activity against replicating Mycobacterium tuberculosis H37Rv ATCC 27294 at 20 ug/ml after 1 week by microplate alamar blue assay; type: functional; settings: H37Rv ATCC 27294, 168 h

Chain of Acetylcholinesterase (O42275 whole entry): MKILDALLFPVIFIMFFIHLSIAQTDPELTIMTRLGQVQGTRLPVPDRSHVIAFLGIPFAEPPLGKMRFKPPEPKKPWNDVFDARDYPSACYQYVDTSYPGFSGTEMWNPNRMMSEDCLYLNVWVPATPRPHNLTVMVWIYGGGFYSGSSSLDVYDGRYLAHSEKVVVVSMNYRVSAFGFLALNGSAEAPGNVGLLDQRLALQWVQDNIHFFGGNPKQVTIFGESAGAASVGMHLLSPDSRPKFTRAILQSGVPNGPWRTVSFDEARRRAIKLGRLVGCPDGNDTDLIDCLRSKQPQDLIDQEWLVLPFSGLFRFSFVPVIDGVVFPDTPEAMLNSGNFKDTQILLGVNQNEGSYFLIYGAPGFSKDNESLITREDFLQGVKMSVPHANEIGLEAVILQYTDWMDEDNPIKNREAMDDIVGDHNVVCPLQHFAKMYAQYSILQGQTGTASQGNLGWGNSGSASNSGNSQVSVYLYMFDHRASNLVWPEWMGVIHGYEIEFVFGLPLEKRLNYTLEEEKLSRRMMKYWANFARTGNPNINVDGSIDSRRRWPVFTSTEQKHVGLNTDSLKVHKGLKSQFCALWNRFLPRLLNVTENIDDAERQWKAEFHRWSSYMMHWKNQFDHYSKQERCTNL
Chain of Cholinesterase (P81908 whole entry): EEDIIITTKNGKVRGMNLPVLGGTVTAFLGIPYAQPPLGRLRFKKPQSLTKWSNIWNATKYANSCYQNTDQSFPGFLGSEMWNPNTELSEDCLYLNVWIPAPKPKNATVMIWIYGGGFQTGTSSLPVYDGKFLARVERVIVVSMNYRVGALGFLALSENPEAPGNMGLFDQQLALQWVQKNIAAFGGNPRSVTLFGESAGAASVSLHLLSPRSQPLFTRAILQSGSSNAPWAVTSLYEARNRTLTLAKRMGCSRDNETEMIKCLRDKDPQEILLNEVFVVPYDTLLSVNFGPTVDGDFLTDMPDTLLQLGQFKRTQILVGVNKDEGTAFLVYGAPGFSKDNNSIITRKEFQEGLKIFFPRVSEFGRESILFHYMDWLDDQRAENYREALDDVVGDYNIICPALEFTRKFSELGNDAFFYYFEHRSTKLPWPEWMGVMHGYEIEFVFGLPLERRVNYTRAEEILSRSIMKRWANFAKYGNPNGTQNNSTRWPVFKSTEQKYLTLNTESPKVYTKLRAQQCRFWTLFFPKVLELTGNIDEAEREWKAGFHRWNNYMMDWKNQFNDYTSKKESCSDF

SMILES | MIC [1] | IC50 (Acetylcholinesterase) | IC50 (Cholinesterase; read-out: IC50) | inhibition at 100 µg/mL [2] | IC50 (Cholinesterase; read-out: pIC50 (converted)) | inhibition at 50 µg/mL [3] | MIC [4] | inhibition at 20 µg/mL [5]
COC(=O)C1=C2Nc3ccccc3[C@@]23CCN2C[C@]4(C[C@@H]5C[C@]67CC(=O)O[C@H]6CCN6CC[C@@]8(c9cccc(OC)c9N(C4)[C@@H]58)[C@@H]67)[C@@H]4OCC[C@]4(C1)[C@H]23 [DEOXYVOBSTUSINE LACTONE] | > 100 µg/mL | 91 µM | 20.2 µM | 35% |  |  |  | 
COC(=O)C1=C2Nc3ccccc3[C@@]23CCN2C[C@]4(C[C@@H]5C[C@]67CCO[C@H]6CCN6CC[C@@]8(c9cccc(OC)c9N(C4)[C@@H]58)[C@@H]67)[C@@H]4OCC[C@]4(C1)[C@H]23 [DEOXYVOBTUSINE] | > 50 µg/mL | 87 µM | 6.2 µM |  | 7.73 µM | 13% |  | 
COC(=O)C1=C2Nc3ccccc3[C@@]23CCN2[C@H](O)[C@]4(C[C@@H]5C[C@]67CC(=O)O[C@H]6CCN6CC[C@@]8(c9cccc(OC)c9N(C4)[C@@H]58)[C@@H]67)[C@@H]4OCC[C@]4(C1)[C@H]23 [GLOBOSPIRAMINE] | 4 µg/mL (≈ 5.46 µM) | 94 µM | 16.4 µM |  | 16.3 µM |  | 5.2 µg/mL (≈ 7.1 µM) | 
NNC(=O)c1ccncc1 [ISONIAZID] | 0.68 µg/mL (≈ 4.96 µM) |  |  |  |  |  | > 128 µg/mL | 
C=C(C)[C@@H]1CC[C@]2(C)CC[C@]3(C)[C@H](CC[C@@H]4[C@@]5(C)CC[C@H](O)C(C)(C)[C@@H]5CC[C@]43C)[C@@H]12 [LUPEOL] | > 20 µg/mL |  |  |  |  |  |  | 0%
COc1c(N2C[C@@H]3CCCN[C@@H]3C2)c(F)cc2c(=O)c(C(=O)O)cn(C3CC3)c12 [MOXIFLOXACIN] | 0.83 µg/mL (≈ 2.07 µM) |  |  |  |  |  | 33.2 µg/mL (≈ 82.7 µM) | 
CO[C@H]1/C=C/O[C@@]2(C)Oc3c(C)c(O)c4c(O)c(c(/C=N/N5CCN(C)CC5)c(O)c4c3C2=O)NC(=O)/C(C)=C\C=C\[C@H](C)[C@H](O)[C@@H](C)[C@@H](O)[C@@H](C)[C@H](OC(C)=O)[C@@H]1C [RIFAMPIN] | 0.15 µg/mL (≈ 0.182 µM) |  |  |  |  |  | 0.84 µg/mL (≈ 1.02 µM) | 
COC(=O)C1=C2Nc3ccccc3[C@@]23CCN2C[C@]4(C[C@@H]5C[C@]67CC(=O)C[C@H]6CCN6CC[C@@]8(c9cccc(OC)c9N(C4)[C@@]58O)[C@@H]67)[C@@H]4OCC[C@]4(C1)[C@H]23 [VOBTUSINE LACTONE] | > 50 µg/mL | 90 µM | 18 µM |  |  | 13% |  | 
